Measurements reported in article PMC7157554, “Anti-Trypanosomal Proteasome Inhibitors Cure Hemolymphatic and Meningoencephalic Murine Infection Models of African Trypanosomiasis” (Tropical Medicine and Infectious Disease, 2020).
In brackets after ≈: the same amount, converted by molar mass. Where two headings read alike, the source gives them in different places.

Tests used:
[1] = system: T. brucei PSMB4^F24L; experiment: Growth inhibition of T. brucei expressing F24L mutant 20S proteasome β4 subunit; format: cell-based, Trypanosoma brucei; settings: Trypanosoma brucei, read-out: T. brucei PSMB4^F24L EC50
Description: (§1) For determination of 50% growth inhibition, all compounds were dissolved in DMSO, and 200 nL of threefold serially diluted compounds were added into solid-bottom 384-well white plates (Greiner Bio-One, Kremsmunster, Austria) by an Echo 555 acoustic liquid-handling system. Forty microliters of 10^4 cells/mL of T. b. brucei parasites was added into each well, and the plates were incubated in a 5% CO2 incubator at 37 °C for 48 h. Viability of parasites were determined by measuring intracellular ATP levels, using CellTiter-Glo (CTG) luminescent cell viability reagent (Promega, Madison, Wisconsin WI, USA). The EC50 values were determined by using GraphPad Prism software. Growth inhibition assays for all clinical isolates were carried out as described earlier. All experiments had two technical replicates and three biological replicates. Appropriate statistical tests were used for evaluating significance, and mean ± SEM is represented in the tables.

[2] = Per oral pharmacokinetics in mouse; format: in vivo; settings: for AUC / Cmax: total
Description: Determination of intravenous (i.v.) and per oral (p.o.) pharmacokinetics (PK) were carried out by using male BALB/c mice. For i.v. PK studies, compounds were formulated at a concentration of 2.5 mg/mL in 75% PEG300 and 25% D5W (5% dextrose in distilled water). To avoid any granular material, the solution was filtered, using a 0.45 μm syringe filter. The filtered solutions were dosed intravenously to mice via the lateral tail vein, at 5 mg/kg, with a dosing volume of 2 mL/kg. For all the p.o. PK studies, compounds were resuspended in 0.5% v/v methyl cellulose in 0.5 % v/v tween 80 solution. For 20 mg/kg dosing, 200 µL of compounds was administered orally to mice. Six blood samples of 50 μL each were collected serially from each animal, up to 24 h after dosing. Blood samples were collected into heparin microtainers and centrifuged, and then plasma was separated and frozen until analysis. Plasma samples (20 μL) were extracted with acetonitrile:methanol (3:1) containing internal standard. The samples were vortexed and then centrifuged in an Eppendorf centrifuge 5810R, at a setting of 4000 rpm, for 5 min, at 4 °C. The supernatant was transferred to a 96-well analysis plate and analyzed, using optimized LC/MS/MS conditions. For every experiment, 3 mice were used per compound, per dose. The plasma concentration-time profile was obtained by plotting the mean value from the three animals at each time point. Various PK parameters, such as Cmax (maximum concentration), area under curve (AUC) and oral bioavailability (F) for compounds, were calculated by non-compartmental regression analysis, using an in-house fitting program developed at GNF [8]. All the in-life studies were carried out under protocols approved by the Animal Care and Use Committee (IACUC), following animal ethics guidelines of GNF.

[3] = system: T. brucei PSMB4^WT; experiment: Growth inhibition of T. brucei expressing wild-type 20S proteasome β4 subunit; format: cell-based; settings: Trypanosoma brucei, read-out: T. brucei PSMB4^WT EC50
Description: as §1

[4] = system: MDR1 (Pgp); experiment: in vitro; settings: dog, MDCK-MDR1
Description: In order to evaluate potential of brain permeability, all three compounds were tested in an MDR1-MDCK permeability assay. […] Those that have a high efflux ratio are generally substrates for Pgp transporters, thereby having a higher propensity to be excluded from the brain. […] To assess directly the TP compounds’ ability to penetrate brain, mice were dosed with compound, and plasma and brains were collected after 5 and 60 min following intravenous dosing.

[5] = Rat brain tissue binding; format: in vitro ADME; settings: rat brain tissue homogenate
Description: (§2) Test compounds’ solubility was determined in a high-throughput thermodynamic solubility assay, as described previously. The PAMPA (parallel artificial membrane) assays were carried out, using a standard protocol. Plasma protein binding was determined by using mouse blood, whilst brain tissue binding was determined by using rat brain tissue homogenate. Intrinsic metabolic clearances were determined in mouse liver microsomes, using the compound depletion approach and LC–MS/MS quantification.

[6] = HepG2 cytotoxicity assay (CCK-8, 96 h); format: cell-based, human; settings: human, HepG2 cells, mean ± SEM
Description: The HepG2 (human hepatocellular carcinoma) cells were obtained from ATCC (American Type Culture Collection) and grown in RPMI media. Cytotoxicity assay was performed in 384-well format, and 25 µL, approximately 1.6 × 10^4 cells/mL, suspension was added to clear-bottom 384-well Griener plates and incubated in 5% CO2 incubator, at 37 °C for 24 h. Once the cells adhered, 125 nL of threefold serially diluted compounds in DMSO was added. Plates were incubated for 96 h, at 37 °C, in a 5% CO2 incubator. Plates were read for viability by adding 10 µL of CCK-8 reagent (APExBIO) into each well, followed by 3 h incubation and absorbance reading at […], using an Envision plate reader. […] Puromycin was used as a positive control. All experiments had two technical replicates and three biological replicates. Appropriate statistical tests were used for evaluating significance, and mean ± SEM is represented in the tables.

[7] = High-throughput thermodynamic solubility assay; format: physicochemical; settings: for solubility: pH 6.8, thermodynamic from solid
Description: as §2

[8] = system: T. b. rhodesiense; experiment: Growth inhibition of T. b. rhodesiense strains; format: cell-based; settings: Trypanosoma brucei, mean ± SD, read-out: T. b. rhodesiense EC50
[9] = system: T. b. gambiense; experiment: Growth inhibition of T. b. gambiense strains; format: cell-based; settings: Trypanosoma brucei, mean ± SD, read-out: T. b. gambiense EC50
[10] = male, BALB/c, plasma, po, p.o. 20 mg/kg, 0 to infinity
[11] = male, BALB/c, plasma, po, p.o. 20 mg/kg
[12] = RHODESIENSE / STIB900, strain STIB900
[13] = RHODESIENSE / STIB900, strain STIB900 Mel^R (melarsoprol-resistant)
[14] = RHODESIENSE / STIB900, strain STIB900 Pent^R (pentamidine-resistant)
[15] = GAMBIENSE / STIB930, strain STIB930

For Cc1nc(C)c(C(=O)Nc2ccc(F)c(-c3nc4ncc(C(C)(C)C)cn4n3)c2)o1 [NITD689], which EC50 [1] is on record?
The EC50 was 1900 ± 20 nM.

And the AUC [2, 10]?
The AUC was 89.7 µM·h.

What about the bioavailability ([2]; male, BALB/c, plasma, po, p.o. 20 mg/kg, read-out: F (oral bioavailability)) of the same compound?
Its bioavailability is 100%.

What about the Cmax [2, 11] of the same compound?
Its Cmax is 12.2 µM.

What about the Tmax ([2]; p.o. 20 mg/kg) of the same compound?
Its Tmax is 0.5 H.

And the “Cmax, free fraction (value in parenthesis)” value ([2]; p.o. 20 mg/kg, free)?
Its value is 1.1562 µM.

And the EC50 [3]?
Its EC50 is 20 ± 4 nM.

What about the efflux ratio [4] of the same compound?
Its efflux ratio is 0.9.

And the “BTB (rat brain tissue binding)” value [5]?
Its value is 96.5%.

And the CC50 at 96 h [6]?
The CC50 at 96 h was > 20000 nM.

And the solubility [7]?
The solubility was 71 µg/mL (≈ 174 µM).

Which EC50 [1] does the source give for Cc1nc(C)c(C(=O)Nc2ccc(F)c(-c3nc4ncc(-c5ccccc5)cn4n3)c2)o1 [GNF3849] here?
Its EC50 is 2200 ± 20 nM.

And the AUC [2, 10]?
The AUC was 108 µM·h.

What about the Cmax [2, 11] of the same compound?
The Cmax was 7.16 µM.

What about the “Exposure, fold less than GNF6702” value ([2]; oral) of the same compound?
Its value is ~ 2.5 fold.

And the Tmax ([2]; p.o. 20 mg/kg)?
The Tmax was 3 H.

And the “AUC, free fraction (value in parenthesis)” value ([2]; p.o. 20 mg/kg, 0 to infinity, free)?
The value was < 1.0751 µM·h.

What about the “Cmax, free fraction (value in parenthesis)” value ([2]; p.o. 20 mg/kg, free) of the same compound?
Its value is < 0.0716 µM.

And the EC50 [8, 12]?
Its EC50 is 1.4 ± 1 nM.

What about the EC50 [8, 13] of the same compound?
Its EC50 is 0.6 nM.

And the EC50 [8, 14]?
Its EC50 is 1.7 ± 1 nM.

What about the EC50 [9, 15] of the same compound?
Its EC50 is 4.5 ± 1 nM.

What about the EC50 ([9]; GAMBIENSE, strain K048) of the same compound?
Its EC50 is 4.8 ± 1.1 nM.

And the EC50 ([9]; GAMBIENSE, strain R130)?
The EC50 was 1.9 ± 1 nM.

What about the EC50 [3] of the same compound?
Its EC50 is 10 ± 3 nM.

And the efflux ratio [4]?
The efflux ratio was 3.2.

And the “BTB (rat brain tissue binding)” value [5]?
Its value is >99%.

And the CC50 at 96 h [6]?
Its CC50 at 96 h is 1100 ± 200 nM.

And the “Solubility pH 6.8” value ([7]; pH 6.8)?
The value was “poor”.

What about the solubility [7] of the same compound?
The solubility was < 2 µg/mL.

What does the source list for Cc1nc(C)c(C(=O)Nc2ccc(F)c(-c3nc4ncc(-c5ccccn5)cn4n3)c2)o1 [GNF6702]?
EC50 [8, 12]: 1.6 ± 0.9 nM; EC50 [8, 13]: 0.7 ± 0.2 nM; EC50 [8, 14]: 1.2 ± 0.3 nM; EC50 [9, 15]: 3.7 ± 2 nM; EC50 ([9]; GAMBIENSE, strain K048): 3.5 ± 1.4 nM; EC50 ([9]; GAMBIENSE, strain R130): 2.3 ± 1.1 nM
